{"source": "ChEMBL document CHEMBL1201862", "about": "“PubChem BioAssay data set” (2004)", "assay_in_all_cases": "NCI-60 cell line screen, 48 h", "key": {"786-0": {"system": "786-0"}, "A498": {"system": "A498"}, "A549": {"system": "A549"}, "ACHN": {"system": "ACHN"}, "BT-549": {"system": "BT-549"}, "CAKI-1": {"system": "CAKI-1"}, "CCRF-CEM": {"system": "CCRF-CEM"}, "COLO 205": {"system": "COLO 205"}, "DU-145": {"system": "DU-145"}, "EKVX": {"system": "EKVX"}, "HCC 2998": {"system": "HCC 2998"}, "HCT-116": {"system": "HCT-116"}, "HCT-15": {"system": "HCT-15"}, "HL-60": {"system": "HL-60"}, "HOP-62": {"system": "HOP-62"}, "HOP-92": {"system": "HOP-92"}, "HT-29": {"system": "HT-29"}, "Hs-578T": {"system": "Hs-578T"}, "IGROV-1": {"system": "IGROV-1"}, "K562": {"system": "K562"}, "KM12": {"system": "KM12"}, "LOX IMVI": {"system": "LOX IMVI"}, "M14": {"system": "M14"}, "MCF7": {"system": "MCF7"}, "MDA-MB-231": {"system": "MDA-MB-231"}, "MDA-MB-435": {"system": "MDA-MB-435"}, "MDA-N": {"system": "MDA-N"}, "MOLT-4": {"system": "MOLT-4"}, "Malme-3M": {"system": "Malme-3M"}, "NCI-H226": {"system": "NCI-H226"}, "NCI-H23": {"system": "NCI-H23"}, "NCI-H460": {"system": "NCI-H460"}, "NCI-H522": {"system": "NCI-H522"}, "NCI/ADR-RES": {"system": "NCI/ADR-RES"}, "OVCAR-3": {"system": "OVCAR-3"}, "OVCAR-4": {"system": "OVCAR-4"}, "OVCAR-5": {"system": "OVCAR-5"}, "OVCAR-8": {"system": "OVCAR-8"}, "PC-3": {"system": "PC-3"}, "RPMI-8226": {"system": "RPMI-8226"}, "SF-268": {"system": "SF-268"}, "SF-295": {"system": "SF-295"}, "SF-539": {"system": "SF-539"}, "SK-MEL-28": {"system": "SK-MEL-28"}, "SK-MEL-2": {"system": "SK-MEL-2"}, "SK-MEL-5": {"system": "SK-MEL-5"}, "SK-OV-3": {"system": "SK-OV-3"}, "SN12C": {"system": "SN12C"}, "SNB-19": {"system": "SNB-19"}, "SNB-75": {"system": "SNB-75"}, "SR": {"system": "SR"}, "SW-620": {"system": "SW-620"}, "T47D": {"system": "T47D"}, "TK-10": {"system": "TK-10"}, "U-251": {"system": "U-251"}, "UACC-257": {"system": "UACC-257"}, "UACC-62": {"system": "UACC-62"}, "UO-31": {"system": "UO-31"}}, "note": "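The compound was tested at five concentrations on cells cultured in 96-well plates, with a 48-hour exposure period. GI50 = concentration required for 50% inhibition of growth.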 The source made the active and inactive calls. Rule as the data show it: active = GI50 up to about 1.1 µM and inactive = higher.", "data": [{"smiles": "Cc1ccc2c(c1)C(=O)c1[nH]c3ccc(F)cc3c1CO2", "values": [{"measurement": "GI50", "setting": "786-0", "result": "12.1 µM (inactive)"}, {"measurement": "GI50", "setting": "A498", "result": "79.4 µM (inactive)"}, {"measurement": "GI50", "setting": "A549", "result": "62.2 µM (inactive)"}, {"measurement": "GI50", "setting": "ACHN", "result": "28.6 µM (inactive)"}, {"measurement": "GI50", "setting": "BT-549", "result": "31.1 µM (inactive)"}, {"measurement": "GI50", "setting": "CAKI-1", "result": "27.5 µM (inactive)"}, {"measurement": "GI50", "setting": "CCRF-CEM", "result": "> 100 µM (inactive)"}, {"measurement": "GI50", "setting": "COLO 205", "result": "> 100 µM (inactive)"}, {"measurement": "GI50", "setting": "DU-145", "result": "> 100 µM (inactive)"}, {"measurement": "GI50", "setting": "EKVX", "result": "67.6 µM (inactive)"}, {"measurement": "GI50", "setting": "HCC 2998", "result": "> 100 µM (inactive)"}, {"measurement": "GI50", "setting": "HCT-116", "result": "17.8 µM (inactive)"}, {"measurement": "GI50", "setting": "HCT-15", "result": "> 100", "unit": "µM"}, {"measurement": "GI50", "setting": "HL-60", "result": "> 100 µM (inactive)"}, {"measurement": "GI50", "setting": "HOP-62", "result": "10.1 µM (inactive)"}, {"measurement": "GI50", "setting": "HOP-92", "result": "81.8 µM (inactive)"}, {"measurement": "GI50", "setting": "HT-29", "result": "23.4 µM (inactive)"}, {"measurement": "GI50", "setting": "Hs-578T", "result": "17.6 µM (inactive)"}, {"measurement": "GI50", "setting": "IGROV-1", "result": "30.3 µM (inactive)"}, {"measurement": "GI50", "setting": "K562", "result": "29 µM (inactive)"}, {"measurement": "GI50", "setting": "KM12", "result": "> 100 µM (inactive)"}, {"measurement": "GI50", "setting": "LOX IMVI", "result": "21.5 µM (inactive)"}, {"measurement": "GI50", "setting": "M14", "result": "18.8 µM (inactive)"}, {"measurement": "GI50", "setting": "MCF7", "result": "> 100 µM (inactive)"}, {"measurement": "GI50", "setting": "MDA-MB-231", "result": "> 100 µM (inactive)"}, {"measurement": "GI50", "setting": "MDA-MB-435", "result": "58.9 µM (inactive)"}, {"measurement": "GI50", "setting": "MDA-N", "result": "> 100 µM (inactive)"}, {"measurement": "GI50", "setting": "MOLT-4", "result": "58.2 µM (inactive)"}, {"measurement": "GI50", "setting": "Malme-3M", "result": "26.3 µM (inactive)"}, {"measurement": "GI50", "setting": "NCI-H226", "result": "31.8 µM (inactive)"}, {"measurement": "GI50", "setting": "NCI-H23", "result": "25.2 µM (inactive)"}, {"measurement": "GI50", "setting": "NCI-H460", "result": "33.9 µM (inactive)"}, {"measurement": "GI50", "setting": "NCI-H522", "result": "36.6 µM (inactive)"}, {"measurement": "GI50", "setting": "NCI/ADR-RES", "result": "58.5 µM (inactive)"}, {"measurement": "GI50", "setting": "OVCAR-3", "result": "36.6 µM (inactive)"}, {"measurement": "GI50", "setting": "OVCAR-4", "result": "15.3 µM (inactive)"}, {"measurement": "GI50", "setting": "OVCAR-5", "result": "> 100 µM (inactive)"}, {"measurement": "GI50", "setting": "OVCAR-8", "result": "15.8 µM (inactive)"}, {"measurement": "GI50", "setting": "PC-3", "result": "84.9 µM (inactive)"}, {"measurement": "GI50", "setting": "RPMI-8226", "result": "39.9 µM (inactive)"}, {"measurement": "GI50", "setting": "SF-268", "result": "48 µM (inactive)"}, {"measurement": "GI50", "setting": "SF-295", "result": "11.4 µM (inactive)"}, {"measurement": "GI50", "setting": "SF-539", "result": "13.9 µM (inactive)"}, {"measurement": "GI50", "setting": "SK-MEL-28", "result": "97.1 µM (inactive)"}, {"measurement": "GI50", "setting": "SK-MEL-2", "result": "12.1 µM (inactive)"}, {"measurement": "GI50", "setting": "SK-MEL-5", "result": "> 100 µM (inactive)"}, {"measurement": "GI50", "setting": "SK-OV-3", "result": "15.1 µM (inactive)"}, {"measurement": "GI50", "setting": "SN12C", "result": "> 100 µM (inactive)"}, {"measurement": "GI50", "setting": "SNB-19", "result": "14.3 µM (inactive)"}, {"measurement": "GI50", "setting": "SNB-75", "result": "10.3 µM (inactive)"}, {"measurement": "GI50", "setting": "SR", "result": "49.8 µM (inactive)"}, {"measurement": "GI50", "setting": "SW-620", "result": "24.4 µM (inactive)"}, {"measurement": "GI50", "setting": "T47D", "result": "21.3 µM (inactive)"}, {"measurement": "GI50", "setting": "TK-10", "result": "31.8 µM (inactive)"}, {"measurement": "GI50", "setting": "U-251", "result": "18.5 µM (inactive)"}, {"measurement": "GI50", "setting": "UACC-257", "result": "> 100 µM (inactive)"}, {"measurement": "GI50", "setting": "UACC-62", "result": "24.4 µM (inactive)"}, {"measurement": "GI50", "setting": "UO-31", "result": "> 100 µM (inactive)"}]}]}
